# Source: patent US20210308089A1, “METHODS OF TREATING AND/OR PREVENTING VIRAL INFECTIONS AND/OR DISEASES CAUSED BY VIRUSES IN A SUBJECT IN NEED THEREOF” (priority 2020, published 2021)
# Test system: patients of the REDUCE-IT and earlier EPA placebo-controlled trials
# Type: in vivo, human
# Conditions: R-I
structure (smiles),measurement,value
"CC/C=C\C/C=C\C/C=C\C/C=C\C/C=C\CCCC(=O)OCC [icosapent ethyl, eicosapentaenoic acid ethyl ester]",Risk Ratio (95% CI): ALP shift: normal to high (Day 1080),0.395 (0.280 to 0.528) 4
same,Risk Ratio (95% CI): ALP shift: normal to high (Day 1440),0.406 (0.287 to 0.575) 3
same,Risk Ratio (95% CI): ALP shift: normal to high (Day 1800),0.439 (0.280 to 0.688) 3
same,Risk Ratio (95% CI): ALP shift: normal to low (Day 120),3.341 (1.343 to 8.311) −4
same,Risk Ratio (95% CI): ALP shift: normal to low (Day 360),2.394 (0.994 to 5.767) −3
same,Risk Ratio (95% CI): ALP shift: normal to low (Day 720),2.783 (1.178 to 6.572) −4
same,Risk Ratio (95% CI): ALP shift: normal to low (Day 1080),1.938 (0.831 to 4.522) −3
same,Risk Ratio (95% CI): ALP shift: normal to low (Day 1440),1.199 (0.562 to 2.556) −1
same,Risk Ratio (95% CI): Albumin high (Day 120),2.263 (1.388 to 3.689) −3
same,Risk Ratio (95% CI): Albumin high (Day 360),1.901 (1.217 to 2.969) −3
same,Risk Ratio (95% CI): Albumin high (Day 720),1.365 (0.975 to 1.911) −2
same,Risk Ratio (95% CI): Albumin high (Day 1080),1.449 (0.993 to 2.115) −2
same,Risk Ratio (95% CI): Albumin high (Day 1440),1.540 (1.001 to 2.369) −2
same,Risk Ratio (95% CI): Albumin shift: normal to high (Day 120),3.055 (1.709 to 5.461) −4
same,Risk Ratio (95% CI): Albumin shift: normal to high (Day 360),2.364 (1.388 to 4.027) −3
same,Risk Ratio (95% CI): Albumin shift: normal to high (Day 720),1.475 (1.028 to 2.116) −2
same,Risk Ratio (95% CI): Albumin shift: normal to high (Day 1080),1.257 (0.848 to 1.864) −2
same,Risk Ratio (95% CI): Albumin shift: normal to high (Day 1440),1.531 (0.974 to 2.408) −2
same,Risk Ratio (95% CI): Bilirubin >1x ULN to 2x ULN,3.157 (2.392 to 4.168) −4
same,Risk Ratio (95% CI): Bilirubin high (Day 120),4.288 (2.849 to 6.454) −4
same,Risk Ratio (95% CI): Bilirubin high (Day 360),3.263 (2.203 to 4.832) −4
same,Risk Ratio (95% CI): Bilirubin high (Day 720),5.052 (3.174 to 8.039) −5
same,Risk Ratio (95% CI): Bilirubin high (Day 1080),2.430 (1.683 to 3.508) −3
same,Risk Ratio (95% CI): Bilirubin high (Day 1440),3.543 (2.243 to 5.596) −4
same,Risk Ratio (95% CI): Bilirubin high (Day 1800),2.670 (1.569 to 4.545) −4
same,Risk Ratio (95% CI): Bilirubin shift: normal to high (Day 120),5.106 (2.754 to 9.467) −5
same,Risk Ratio (95% CI): Bilirubin shift: normal to high (Day 360),5.431 (2.773 to 10.636) −5
same,Risk Ratio (95% CI): Bilirubin shift: normal to high (Day 720),4.803 (2.516 to 9.168) −4
same,Risk Ratio (95% CI): Bilirubin shift: normal to high (Day 1080),2.235 (1.374 to 3.636) −3
same,Risk Ratio (95% CI): Bilirubin shift: normal to high (Day 1440),5.445 (2.687 to 11.034) −5
same,Risk Ratio (95% CI): Bilirubin shift: normal to high (Day 1800),2.556 (1.242 to 5.259) −4
same,Risk Ratio (95% CI): Calcium high (Day 120),0.799 (0.517 to 1.236) 2
same,Risk Ratio (95% CI): Calcium high (Day 360),0.915 (0.593 to 1.412) 1
same,Risk Ratio (95% CI): Calcium high (Day 720),0.767 (0.491 to 1.200) 2
same,Risk Ratio (95% CI): Calcium low (Day 120),1.399 (0.444 to 4.404) −2
same,Risk Ratio (95% CI): Calcium low (Day 360),9.856 (1.262 to 76.953) −5
same,Risk Ratio (95% CI): Calcium low (Day 720),2.911 (0.789 to 10.744) −4
same,Risk Ratio (95% CI): DBP High (≥100 mmHg),1.121 (0.931 to 1.350) −1
same,Risk Ratio (95% CI): DBP High and Rose ≥10 mmHg,1.092 (0.888 to 1.344) −1
same,Risk Ratio (95% CI): DBP Low (≤50 mmHG),1.136 (0.732 to 1.763) −1
same,Risk Ratio (95% CI): DBP Low and dropped ≥10 mmHg,1.030 (0.644 to 1.648) −1
same,Risk Ratio (95% CI): DBP dropped ≥10 mmHG,1.087 (1.028 to 1.150) −1
same,Risk Ratio (95% CI): DBP rose ≥10 mmHg,0.983 (0.927 to 1.041) 1
same,Risk Ratio (95% CI): High platelets (Day 720),1.503 (1.007 to 2.242) −2
same,Risk Ratio (95% CI): Low platelets (Day 360),0.366 (0.253 to 0.530) 4
same,Risk Ratio (95% CI): Low platelets (Day 720),0.799 (0.608 to 1.051) 2
same,Risk Ratio (95% CI): Low platelets (Day 1080),0.688 (0.512 to 0.925) 2
same,Risk Ratio (95% CI): Platelet count: PCS Low <100 × 10^3/uL,0.442 (0.258 to 0.758) 3
same,Risk Ratio (95% CI): SBP High (≥160 mmHg),0.912 (0.833 to 1.000) 1
same,Risk Ratio (95% CI): SBP High and rose ≥20 mmHg,0.908 (0.805 to 1.023) 1
same,Risk Ratio (95% CI): SBP Low (≤90 mmHg),1.819 (1.093 to 3.055) −3
same,Risk Ratio (95% CI): SBP dropped ≥20 mmHg,1.117 (1.033 to 1.208) −1
same,Risk Ratio (95% CI): SBP low and dropped ≥20 mmHg,1.422 (0.792 to 2.553) −2
same,Risk Ratio (95% CI): SBP rose ≥20 mmHg,0.976 (0.912 to 1.045) 1
same,Risk Ratio (95% CI): Urate high (Day 120),1.398 (1.246 to 1.568) −2
same,Risk Ratio (95% CI): Urate high (Day 360),1.350 (1.197 to 1.523) −2
same,Risk Ratio (95% CI): Urate high (Day 720),1.323 (1.162 to 1.506) −2
same,Risk Ratio (95% CI): Urate high (Day 1080),1.102 (0.961 to 1.263) −1
same,Risk Ratio (95% CI): Urate high (Day 1440),1.109 (0.956 to 1.286) −1
same,Risk Ratio (95% CI): Urate high (Day 1800),1.084 (0.883 to 1.331) −1
same,Risk Ratio (95% CI): Urate shift: normal to high (Day 120),1.689 (1.369 to 2.084) −3
same,Risk Ratio (95% CI): Urate shift: normal to high (Day 360),1.674 (1.363 to 2.056) −3
same,Risk Ratio (95% CI): Urate shift: normal to high (Day 720),1.513 (1.227 to 1.865) −2
same,Risk Ratio (95% CI): Urate shift: normal to high (Day 1080),1.118 (0.910 to 1.374) −1
same,Risk Ratio (95% CI): Urate shift: normal to high (Day 1440),1.079 (0.879 to 1.324) −1
same,Risk Ratio (95% CI): Urate shift: normal to high (Day 1800),1.029 (0.782 to 1.355) −1
same,Risk Ratio (95% CI): Urate shift: normal to low (Day 120),1.654 (0.396 to 6.915) −2
same,Risk Ratio (95% CI): Urate shift: normal to low (Day 360),0.733 (0.255 to 2.110) 2
same,Risk Ratio (95% CI): Urate shift: normal to low (Day 720),0.361 (0.096 to 1.360) 4
same,Risk Ratio (95% CI): Urate shift: normal to low (Day 1080),0.474 (0.119 to 1.893) 3
